Key:
[1] = test system: production of IL-1β (THP-1 cells); test: inhibition of the production of IL-1β in THP-1 cells stimulated with PMA and polyinosic acid (enzyme immunoassay); format: cell-based; settings: Homo sapiens, PMA 2 μg/ml and polyinosic acid, 24 hours, read-out: IC50 (concentration to inhibit 50% the IL-1β production)
Protocol: Compounds 1-3, the present diphenyl disulfide compounds obtained in Examples 1 and 2, were evaluated for the activity to inhibit the production of IL-1β, in accordance with the following method.
(§1) The THP-1 cells derived from human peripheral blood (ATCC TIB202) were suspended in RPMI 1640 medium (available from Bio-Whittaker Co., Ltd.) containing 10% (v/v) of fetal bovine serum, 2 mM of glutamine, 50 μM of 2-mercaptoethanol, 60 μg/ml of penicillin and 100 μg/ml of streptomycin.
The suspension of the THP-1 cell was subcultured at 37° C. under the atmosphere of […] and 5% carbon dioxide. A portion of the subcultured suspension was centrifuged at 1200 rpm at room temperature for 3 minutes to recover the subcultured THP-1 cells.
(§2) The resulting THP-1 cells were resuspended in RPMI 1640 medium containing 2% (v/v) of fetal bovine serum, 2 mM of glutamine, 50 μM of 2-mercaptoethanol, 60 μg/ml of penicillin and 100 μg/ml of streptomycin so as to provide a final THP-1 cell concentration of 3×10^6 cells/ml.
The resuspension of the cell was dispensed in 0.5 ml portions to wells of a 24-well plate for cell culture. Then, each solution of the present Compounds 1-3 dissolved in DMSO at the respective specified concentrations was added in 2.5 μl portions to each well. The plate was incubated at 37° C. under the atmosphere of 95% […] and 5% carbon dioxide for one hour. Then, 12-o-tetradecanoylphorbol-13-acetate (PMA) and polyinosic acid were added to each well so as to provide final concentrations of 2 μg/ml and […] respectively. The plate was incubated at 37° C. under the atmosphere of 95% […] and 5% carbon dioxide for 24 hours. After incubation, a supernatant was recovered from each well by means of Pipetteman available from Gilson Co., Ltd. Then, an amount of the IL-1β in the supernatant was assayed by means of the enzyme immunoassay kit available from Cayman Chemical Co., Ltd. […]

[2] = test system: release of TNFα (THP-1 cells); test: inhibition of the release of TNFα in THP-1 cells stimulated with PMA and polyinosic acid (ELISA); format: cell-based; settings: Homo sapiens, PMA 2 μg/ml and polyinosic acid 200 μg/ml, 24 hours, read-out: IC50 (concentration to inhibit 50% the TNFα release)
Protocol: Compound 1, the present diphenyl disulfide compound obtained in Example 1, was evaluated for the activity to inhibit the release of TNFα, in accordance with the following method.
as §1
The suspension of THP-1 cell was subcultured at 37° C. under the atmosphere of 95% […] and 5% carbon dioxide. A portion of the subcultured suspension was centrifuged at 1200 rpm at room temperature for 3 minutes to recover the subcultured THP-1 cells.
as §2
The resuspension of the cell was dispensed in 0.5 ml portions to wells of a 24-well plate for cell culture, and incubated at 37° C. for one hour. Each solution of the present Compound 1 dissolved in DMSO at the respective specified concentrations was added in 2.5 μl portions to each well. The plate was incubated at 37° C. under the atmosphere of 95% […] and 5% carbon dioxide for one hour. […]

Row | IC50 [1] | IC50 [2] | Structure (SMILES)
1 | 34 µM | – | c1cnc(Nc2ccccc2SSc2ccccc2Nc2ncccn2)nc1 [Compound 2]
2 | 3.8 µM | 19 µM | Nc1ccccc1SSc1ccccc1Nc1ncccn1 [Compound 1]

Row | Structure (SMILES) | IC50 [1] | IC50 [2]
3 | O=[N+]([O-])c1ccc(SSc2ccccc2-c2nc3ccccc3[nH]2)c([N+](=O)[O-])c1 [Compound 3] | 34 µM | –
